Experimental data reported in patent publication US10344026B2, “Compositions and methods of targeting mutant K-ras” (NANTBIO, INC., priority 2017, dated 2019).
Where two headings read alike, the source gives them in different places.

How the values were obtained:
Format in all cases: cell-based
HCT116-G31D = assay: Viability assay (CellTiterBlue, 72 hr) HCT116; settings: Homo sapiens, HCT-116, GI50, CellTiterBlue, read-out: 72 hr Cell Viability HCT116 (G13D)
Description: (§1) Viability assays were performed on exemplary compounds and Table 2 below lists exemplary results for selected compounds tested on K-Ras wild type cell lines (Ishikawa, U87-MG, HCC827, and A375) and various K-Ras mutant cell lines (Panc1-G12D; Panc10.05-G12D; HCT116-G31D). Results are expressed in μM and corresponding structures are shown in FIGS. 2A-2G and Examples 1-152, above.
(§2) Cells are counted and seeded at 1000 cells/36 ul medium/well into 384-well microplates. Cells are returned to 37° C. CO2 incubator for 18 hr. Drug is made as 200× in DMSO and diluted into medium to 10×. To each well is added 4 ul 10× drug, and plates are returned to the incubator. Final assay DMSO concentration is 0.5%. After 72 hr, 8 ul CellTiterBlue (Promega) is added to each well. After 3 hr, fluorescence (Ex550/Em590) is determined on the Victor Plate Reader (Perkin Elmer). Assay range is determined by DMSO control (100% viability) and 100 uM tamoxifen (0% viability). GI50 values are calculated using Graphpad Prism.

[1] = test system: U87-MG (K-Ras wild type cell line); assay: Viability assay (CellTiterBlue, 72 hr) U87-MG; settings: Homo sapiens, U-87 MG, GI50, CellTiterBlue
Description: as §1, §2

Panc1-G12D = assay: Viability assay (CellTiterBlue, 72 hr) Panc1; settings: Homo sapiens, PANC-1, GI50, CellTiterBlue, read-out: 72 hr Cell Viability Panc1 (G12D)
Description: as §1, §2

[2] = test system: HCC827 (K-Ras wild type cell line); assay: Viability assay (CellTiterBlue, 72 hr) HCC827; settings: Homo sapiens, GI50, CellTiterBlue
Description: as §1, §2

Panc10.05-G12D = assay: Viability assay (CellTiterBlue, 72 hr) Panc10.05; settings: Homo sapiens, Panc1005, GI50, CellTiterBlue, read-out: 72 hr Cell Viability Panc10.05 (G12D)
Description: as §1, §2

[3] = test system: Ishikawa (K-Ras wild type cell line); assay: Viability assay (CellTiterBlue, 72 hr) Ishikawa; settings: Homo sapiens, GI50, CellTiterBlue
Description: as §1, §2

K-Ras G12D = molecular target: T1, K-Ras G12D (Homo sapiens, UniProt P01116, G12D); assay: G-LISA Ras activation, 293H cells transfected with G12D mutant; settings: compound 1 hour
T1 construct: expressed in transfected cells; host or cells: 293H cells
T1 sequence (P01116 whole entry G12D): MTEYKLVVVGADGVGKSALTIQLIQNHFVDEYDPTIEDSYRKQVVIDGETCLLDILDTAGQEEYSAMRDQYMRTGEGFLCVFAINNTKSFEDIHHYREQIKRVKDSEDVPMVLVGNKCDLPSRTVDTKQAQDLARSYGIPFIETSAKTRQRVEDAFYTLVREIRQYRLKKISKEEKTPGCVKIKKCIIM
Description: 293H cells were seeded in 6-wells at 0.6×10^6 cells per well and transfected next day with 5 μg of Ras wild-type, or G12C, G12D or G12V mutant DNA plasmid vector using transfection reagent Lipofectamine 3000. Next day cells were treated with 3.125-25 μM of Ras compounds for 1 hour. Wild-type transfected cells were subsequently treated with 100 ng/ml EGF for 2 minutes. Cells were washed once in ice-cold PBS, lysed in complete lysis buffer on ice, and processed by G-LISA according to Cytoskeleton protocol.

[4] = Ishikawa cells (K-Ras wild-type)

Row | SMILES | IC50 (HCT116-G31D; HCT116 K-Ras G13D) | IC50 ([1]; U87-MG K-Ras wild-type) | IC50 (Panc1-G12D; Panc1 K-Ras G12D) | IC50 ([2]; HCC827 K-Ras wild-type) | IC50 (Panc10.05-G12D; Panc10.05 K-Ras G12D) | IC50 (K-Ras G12D) | IC50 (HCT116-G31D; HCT116 cells (K-Ras G13D)) | IC50 ([1]; U87-MG cells (K-Ras wild-type)) | IC50 (Panc1-G12D; Panc1 cells (K-Ras G12D)) | IC50 ([2]; HCC827 cells (K-Ras wild-type)) | IC50 (Panc10.05-G12D; Panc10.05 cells (K-Ras G12D)) | IC50 ([3]; Ishikawa K-Ras wild-type) | IC50 [3, 4]
1 | Cc1nc(C2CCCCC2)oc1C(=O)Nc1nc(-c2ccc3c(c2)CCC(=O)N3)cs1 [Compound 11, 2-cyclohexyl-4-methyl-N-(4-(2-oxo-1,2,3,4-tetrahydroquinolin-6-yl)thiazol-2-yl)oxazole-5-carboxamide] | 16 µM | > 25 µM | > 25 µM | 21 µM | 16 µM |  |  |  |  |  |  |  | 
2 | Cc1cc(C)c(C(=O)Nc2nc(-c3ccc4c(c3)CCC(=O)N4)cs2)cn1 [Compound 18] | 26 µM | 11 µM | 5 µM | > 25 µM | 3 µM |  |  |  |  |  |  | 2 µM | 
3 | Cc1nc(-c2ccc3c(c2)OCC3)sc1C(=O)Nc1nc(-c2ccc3c(c2)CCC(=O)N3)cs1 [Compound 19, 2-(2,3-dihydrobenzofuran-6-yl)-4-methyl-N-(4-(2-oxo-1,2,3,4-tetrahydroquinolin-6-yl)thiazol-2-yl)thiazole-5-carboxamide] | 5 µM | 4 µM | 6 µM | 8 µM | 2 µM |  |  |  |  |  |  | 2 µM | 
4 | Cc1nc(C)c(C(=O)Nc2nc(-c3ccc4c(c3)CCC(=O)N4Cc3ccc4c(c3)OCO4)cs2)o1 [Compound 74, N-(4-(1-(benzo[d][1,3]dioxol-5-ylmethyl)-2-oxo-1,2,3,4-tetrahydroquinolin-6-yl)thiazol-2-yl)-2,4-dimethyloxazole-5-carboxamide] | > 25 µM | 6 µM | 11 µM | > 25 µM | 2 µM | 22.4 µM |  |  |  |  |  | 16 µM | 
5 | COc1cc(CN2C(=O)CCc3cc(-c4csc(NC(=O)c5oc(C)nc5C)n4)ccc32)cc(OC)c1 [Compound 77, N-(4-(1-(3,5-dimethoxybenzyl)-2-oxo-1,2,3,4-tetrahydroquinolin-6-yl)thiazol-2-yl)-2,4-dimethyloxazole-5-carboxamide] | > 25 µM | > 25 µM | > 25 µM | > 25 µM | > 25 µM |  |  |  |  |  |  | > 25 µM | 
6 | COc1cc(Cl)cc(CN2C(=O)CCc3cc(-c4csc(NC(=O)c5oc(C)nc5C)n4)ccc32)c1 [Compound 78] | > 25 µM | > 25 µM | > 25 µM | > 25 µM | > 25 µM |  |  |  |  |  |  | > 25 µM | 

Further lines, with some results ahead:

Row | IC50 (HCT116-G31D; HCT116 K-Ras G13D) | IC50 ([1]; U87-MG K-Ras wild-type) | IC50 (Panc1-G12D; Panc1 K-Ras G12D) | IC50 ([2]; HCC827 K-Ras wild-type) | IC50 (Panc10.05-G12D; Panc10.05 K-Ras G12D) | IC50 (K-Ras G12D) | IC50 (HCT116-G31D; HCT116 cells (K-Ras G13D)) | IC50 ([1]; U87-MG cells (K-Ras wild-type)) | IC50 (Panc1-G12D; Panc1 cells (K-Ras G12D)) | IC50 ([2]; HCC827 cells (K-Ras wild-type)) | IC50 (Panc10.05-G12D; Panc10.05 cells (K-Ras G12D)) | SMILES | IC50 ([3]; Ishikawa K-Ras wild-type) | IC50 [3, 4]
7 | > 25 µM | > 25 µM | > 25 µM | > 25 µM | > 25 µM |  |  |  |  |  |  | Cc1nc(C)c(C(=O)Nc2nc(-c3ccc4c(c3)CCC(=O)N4Cc3cccc4ccccc34)cs2)o1 [Compound 79, 2,4-dimethyl-N-(4-(1-(naphthalen-1-ylmethyl)-2-oxo-1,2,3,4-tetrahydroquinolin-6-yl)thiazol-2-yl)oxazole-5-carboxamide] | > 25 µM | 
8 | 9 µM | 4 µM | > 25 µM | 7 µM | 9 µM |  |  |  |  |  |  | Cc1nc(C)c(C(=O)Nc2nc(-c3ccc4c(c3)CCC(=O)N4Cc3ccc4ccccc4c3)cs2)o1 [Compound 80, 2,4-dimethyl-N-(4-(1-(naphthalen-2-ylmethyl)-2-oxo-1,2,3,4-tetrahydroquinolin-6-yl)thiazol-2-yl)oxazole-5-carboxamide] | > 25 µM | 
9 | 4 µM | 3 µM | 12 µM | 6 µM | 4 µM | > 25 µM |  |  |  |  |  | Cc1nc(C)c(C(=O)Nc2nc(-c3ccc4c(c3)CCC(=O)N4Cc3cccc4cnccc34)cs2)o1 [Compound 83, N-(4-(1-(isoquinolin-5-ylmethyl)-2-oxo-1,2,3,4-tetrahydroquinolin-6-yl)thiazol-2-yl)-2,4-dimethyloxazole-5-carboxamide] | 2 µM | 
10 | > 25 µM | > 25 µM | 17 µM | > 25 µM | 17 µM |  |  |  |  |  |  | Cc1nc(C)c(C(=O)Nc2nc(-c3ccc4c(c3)CCC(=O)N4Cc3cccc([N+](=O)[O-])c3)cs2)o1 [Compound 87, 2,4-dimethyl-N-(4-(1-(3-nitrobenzyl)-2-oxo-1,2,3,4-tetrahydroquinolin-6-yl)thiazol-2-yl)oxazole-5-carboxamide] |  | 
11 | 17 µM | 19 µM | > 25 µM | 15 µM | 16 µM |  |  |  |  |  |  | Cc1nc(C)c(C(=O)Nc2nc(-c3ccc4c(c3)CCC(=O)N4CC3CCCNC3)cs2)o1 (stereo not drawn) [Compound 88] |  | 
12 | 11 µM | 13 µM | > 25 µM | 12 µM | 12 µM |  |  |  |  |  |  | Cc1nc(C)c(C(=O)Nc2nc(-c3ccc4c(c3)CCC(=O)N4CC(O)CO)cs2)o1 (stereo not drawn) [Compound 89, N-(4-(1-(2,3-dihydroxypropyl)-2-oxo-1,2,3,4-tetrahydroquinolin-6-yl)thiazol-2-yl)-2,4-dimethyloxazole-5-carboxamide] |  | 
13 |  |  |  |  |  |  | 28 µM | 11 µM | > 25 µM | 22 µM | 22 µM | O=C1CCc2cc(-c3csc(NC(=O)c4cc(Br)cs4)n3)ccc2N1 [Compound 149, 4-bromo-N-(4-(2-oxo-1,2,3,4-tetrahydroquinolin-6-yl)thiazol-2-yl)thiophene-2-carboxamide] |  | 7 µM
14 |  |  |  |  |  | > 25 µM | 27 µM | 8 µM | 27 µM | 20 µM | 20 µM | O=C1CCc2cc(-c3csc(NC(=O)c4ccc(Cl)s4)n3)ccc2N1 [Compound 150, 5-chloro-N-(4-(2-oxo-1,2,3,4-tetrahydroquinolin-6-yl)thiazol-2-yl)thiophene-2-carboxamide] |  | 5 µM
15 |  |  |  |  |  | 23.5 µM | 2 µM | 5 µM | 4 µM | 8 µM | 1.4 µM | Cn1nccc1-c1csc(C(=O)Nc2nc(-c3ccc4c(c3)CCC(=O)N4)cs2)c1 [Compound 151, 4-(1-methyl-1H-pyrazol-5-yl)-N-(4-(2-oxo-1,2,3,4-tetrahydroquinolin-6-yl)thiazol-2-yl)thiophene-2-carboxamide] |  | 1.3 µM
